In assay [1] the test system is ScFv FITC on CHO cells. The experiment in a line: Competition binding on CHO ScFv FITC-expressing cells. The note with it: in the presence of 1 nM 111In-DTPA-FITC as tracer. The method, then: Wild-type or ScFv FITC-expressing cells were plated at 3×10^4 cells/well in 96-well plates one day before binding experiments. […] Cells were gently agitated for 45 minutes at rt and then washed three times 250 ul/well PBS at 4 degrees C. […] For competition experiments, competitor compounds were diluted in 50 ul/well of PBS, 0.1% BSA and added first to washed wells containing cells as above. […] Incubations, washes and counting were performed as above.

For assay [2], the system named is FITC ScFv expressed on CHO cells. The experiment in a line: FACS staining of CHO cells expressing FITC ScFv. It counts as binding. The method, then:
(§1) Stable transfectants were isolated essentially as described (Mattheakis et al., 1999). All ScFv FITC expression constructs contain a neo resistance cassette. Primary G418-resistant populations were stained with mAb 179 labeled with fluorescein as follows. Antibody 179 was linked to fluorescein using fluorescein isothiocyanate (FITC, Molecular Probes, Eugene, Oreg.). This modified mAb 179 contained on average six fluoresceins per antibody molecule. Cells, ˜3-5×10^6, were resuspended in 500 μl of PBS, 0.1% BSA containing mAb 179-FITC at a final concentration of 8 μg/ml. Cells were rotated in the dark for 45 min, spun down, and subsequently resuspended in PBS and enrich sorted using a FACStar plus (Becton-Dickinson, San Jose, Calif.) based on the highest fluorescence. Enriched populations were cloned by limiting dilution and subsequently screened by ELISA. Briefly, 96well plates of clones were fixed with 200 μl per well of ice cold methanol for 10 min. Subsequent steps were done at room temperature (rt). Plates were blocked with PBS, 1% BSA for 30 min and then incubated with mAb 179, 1 μg/ml in PBS, 0.1% BSA for 1h. After 3 washes of 10 min each with PBS, wells were incubated with 1 μg/ml goat anti-mouse-HRP (Pierce, Rockford, Ill.) in PBS, 0.1% BSA for 1 h, washed with PBS three times as above, developed with a TMB peroxidase substrate colorometric assay ( Kirkegaard & Perry Laboratories, Gaithersburg, Md.) and the OD415 measured. Reactive clones were expanded, stained with mAb 179-fluorescein as above and analyzed using a FACScan (Becton-Dickinson, San Jose, Calif.) to choose those with the highest expression of the ScFv based on fluorescence. Clones were also analyzed by anti-179 Western blotting to verify the size of the ScFv protein expressed. ScFv-expressing clones were compared to wild-type CHO-K1 cells by FACScan using further reagents as follows in PBS, 0.1% BSA as above for mAb 179-fluorescein staining. FITC-BSA (Sigma, St. Louis, Mo.) was used at a final concentration of 20 μg/ml and DTPA-FITC and In-DTPA-FITC were each used at a final concentration of 2 μg/ml.

Assay [3] deals with Wild-type CHO cells. The experiment in a line: FACS staining of wild-type CHO cells. It counts as binding. The method, then: as §1

Broadly, the IC50 is the concentration needed to halve the response being measured. Turning to `O=C1OC2(c3ccccc31)c1cc(I)c(O)c(I)c1Oc1c2cc(I)c(O)c1I` [erythrosine, reference compound], the IC50 in assay [1] was 309 nM.
Regarding “Diethylenetriaminepenta-acetic acid (DTPA) coupled to fluorescein [DTPA-FITC]”, the “Mean (fluorescence, FACS)” value was determined as 100.62 in assay [2] (marker A11), 98.06 in assay [2] (marker M1), 13.89 in assay [3] (marker A11) and 8.24 in assay [3] (marker M1). The “Median (fluorescence, FACS)” value is reported as 90.58 in assay [2] (marker A11), 91.40 in assay [2] (marker M1), 7.99 in assay [3] (marker A11) and 7.84 in assay [3] (marker M1). Moreover, the IC50 in assay [1] came to 11.8 nM.
